How the values were obtained:
[1] = target: T1, ΔF508-CFTR (Homo sapiens, UniProt P13569, DEL508-508); experiment: CFTR cell surface levels using HRP-tagged ΔF508-CFTR expressing CFBE cells, intrinsic corrector capacity; format: cell-based; set-up: % Activation: concentration or dose not given beside the values; settings: HRP-tagged ΔF508-CFTR expressing CFBE41o- cells, compound alone (intrinsic corrector capacity), 20 hours at 33° C.; for EC50: read-out: EC50
T1 construct: host or cells: CFBE41o-, doxycycline-inducible
T1 sequence (P13569 with tags, fused parts or gaps DEL508-508): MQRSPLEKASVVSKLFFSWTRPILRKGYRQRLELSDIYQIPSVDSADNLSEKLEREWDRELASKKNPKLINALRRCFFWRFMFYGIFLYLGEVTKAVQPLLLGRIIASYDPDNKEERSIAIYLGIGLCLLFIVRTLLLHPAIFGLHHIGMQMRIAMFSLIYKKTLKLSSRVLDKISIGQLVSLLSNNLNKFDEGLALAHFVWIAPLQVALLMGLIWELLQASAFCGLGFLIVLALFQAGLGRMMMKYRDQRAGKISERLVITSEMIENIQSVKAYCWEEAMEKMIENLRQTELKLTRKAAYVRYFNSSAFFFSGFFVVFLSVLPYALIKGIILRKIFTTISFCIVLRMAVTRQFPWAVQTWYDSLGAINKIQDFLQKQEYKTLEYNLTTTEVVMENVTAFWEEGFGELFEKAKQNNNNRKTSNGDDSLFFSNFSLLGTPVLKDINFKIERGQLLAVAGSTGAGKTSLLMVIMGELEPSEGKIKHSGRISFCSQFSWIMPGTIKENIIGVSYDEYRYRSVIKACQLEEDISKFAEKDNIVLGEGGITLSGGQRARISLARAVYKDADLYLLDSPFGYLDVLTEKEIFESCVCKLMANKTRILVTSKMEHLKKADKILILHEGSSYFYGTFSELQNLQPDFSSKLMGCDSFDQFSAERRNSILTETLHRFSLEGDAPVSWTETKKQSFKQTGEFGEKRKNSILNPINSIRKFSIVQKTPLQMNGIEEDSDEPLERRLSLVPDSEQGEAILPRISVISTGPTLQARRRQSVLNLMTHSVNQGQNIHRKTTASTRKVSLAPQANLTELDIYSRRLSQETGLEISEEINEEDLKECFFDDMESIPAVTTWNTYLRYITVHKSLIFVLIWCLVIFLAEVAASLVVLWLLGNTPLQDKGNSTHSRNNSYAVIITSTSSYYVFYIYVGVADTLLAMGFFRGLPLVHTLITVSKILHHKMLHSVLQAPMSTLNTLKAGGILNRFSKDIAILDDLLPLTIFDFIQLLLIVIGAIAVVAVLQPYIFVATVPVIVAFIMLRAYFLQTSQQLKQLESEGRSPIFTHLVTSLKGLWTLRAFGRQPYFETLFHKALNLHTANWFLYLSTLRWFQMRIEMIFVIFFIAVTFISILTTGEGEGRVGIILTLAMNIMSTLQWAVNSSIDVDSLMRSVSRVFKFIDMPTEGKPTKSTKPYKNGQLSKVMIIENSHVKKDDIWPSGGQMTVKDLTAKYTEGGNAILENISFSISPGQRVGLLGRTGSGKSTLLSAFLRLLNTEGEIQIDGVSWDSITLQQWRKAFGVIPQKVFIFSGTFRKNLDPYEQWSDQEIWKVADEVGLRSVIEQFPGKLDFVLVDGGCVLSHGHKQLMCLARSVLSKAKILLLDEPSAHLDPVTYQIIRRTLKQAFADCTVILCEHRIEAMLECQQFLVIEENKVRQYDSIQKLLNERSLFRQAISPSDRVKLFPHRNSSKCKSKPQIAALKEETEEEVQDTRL
Outline: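 Read-out: chemiluminescent HRP activity of ECL4-HRP-tagged ΔF508-CFTR at the cell surface, 15 min substrate in dark. Normalized as 100×(sample−DMSO)/(positive control−DMSO).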

[2] = target: T1, ΔF508-CFTR; experiment: CFTR cell surface levels using HRP-tagged ΔF508-CFTR expressing CFBE cells, in the presence of a co-corrector; format: cell-based; settings: HRP-tagged ΔF508-CFTR CFBE cells, in the presence of 3 μM co-corrector; for EC50: read-out: EC50
Outline: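 Chemiluminescent read-out of surface HRP (15 min, dark) after PBS washes. Activity is normalized as 100×(sample−DMSO)/(3 μM co-corrector alone−DMSO).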

| SMILES | % Activation [1] | EC50 [1] | % Activation [2] | EC50 [2] |
| --- | --- | --- | --- | --- |
| O=C(NS(=O)(=O)C1COC1)c1cc(N2CCC(N3CCOCC3)CC2)c2c(C3CCC3)nn(-c3ccc(F)cc3)c2n1 [Compound 506, 3-cyclobutyl-1-(4-fluorophenyl)-4-[4-(morpholin-4-yl)piperidin-1-yl]-N-(oxetane-3-sulfonyl)-1H-pyrazolo[3,4-b]pyridine-6-carboxamide] | 144.1% | 3330 nM | 308.95% | 941 nM |
| O=C(NS(=O)(=O)C1CC1)c1cc(N2CCC(N3CCOCC3)CC2)c2c(C3CCC3)nn(-c3ccc(F)cc3)c2n1 [Compound 507, 3-cyclobutyl-N-(cyclopropanesulfonyl)-1-(4-fluorophenyl)-4-[4-(morpholin-4-yl)piperidin-1-yl]-1H-pyrazolo[3,4-b]pyridine-6-carboxamide] | 309.4% | 137 nM | 580.4% | 95.4 nM |
| CC1(S(=O)(=O)NC(=O)c2cc(N3CCC(N4CCOCC4)CC3)c3c(C4CCC4)nn(-c4ccc(F)cc4)c3n2)CC1 [Compound 508, 3-cyclobutyl-1-(4-fluorophenyl)-N-(1-methylcyclopropane-1-sulfonyl)-4-[4-(morpholin-4-yl)piperidin-1-yl]-1H-pyrazolo[3,4-b]pyridine-6-carboxamide] | 217.5% | 182 nM | 448.8% | 90.3 nM |
| Cc1cccc(-n2nc(C3CCC3)c3c(N4CCC(N5CCOCC5)CC4)cc(C(=O)NS(C)(=O)=O)nc32)c1 [Compound 509, 3-cyclobutyl-N-(methanesulfonyl)-1-(3-methylphenyl)-4-[4-(morpholin-4-yl)piperidin-1-yl]-1H-pyrazolo[3,4-b]pyridine-6-carboxamide] | 333.2% | 327 nM | 527.9% | 118 nM |
| CS(=O)(=O)NC(=O)c1cc(N2CCC(N3CCOCC3)CC2)c2c(C3CCC3)nn(-c3ccc(C(F)(F)F)cc3)c2n1 [Compound 510, 3-cyclobutyl-N-(methanesulfonyl)-4-[4-(morpholin-4-yl)piperidin-1-yl]-1-[4-(trifluoromethyl)phenyl]-1H-pyrazolo[3,4-b]pyridine-6-carboxamide] | 234.9% | 298 nM | 428.8% | 171 nM |
| Cc1cc(-n2nc(C3CCC3)c3c(N4CCC(N5CCOCC5)CC4)cc(C(=O)NS(=O)(=O)N(C)C)nc32)ccc1F [Compound 511, 3-cyclobutyl-N-(dimethylsulfamoyl)-1-(4-fluoro-3-methylphenyl)-4-[4-(morpholin-4-yl)piperidin-1-yl]-1H-pyrazolo[3,4-b]pyridine-6-carboxamide] | 248.55% | 88.3 nM | 432.95% | 78.9 nM |
| CN(C)S(=O)(=O)NC(=O)c1cc(N2CCC(N3CCOCC3)CC2)c2c(C3CCC3)nn(-c3cccc(F)c3)c2n1 [Compound 512, 3-cyclobutyl-N-(dimethylsulfamoyl)-1-(3-fluorophenyl)-4-[4-(morpholin-4-yl)piperidin-1-yl]-1H-pyrazolo[3,4-b]pyridine-6-carboxamide] | 222.27% | 121 nM | 415.25% | 65.3 nM |
| CN(C)S(=O)(=O)NC(=O)c1cc(N2CCC(N3CCOCC3)CC2)c2c(C3CCC3)nn(-c3cccc(C(F)(F)F)c3)c2n1 [Compound 513, 3-cyclobutyl-N-(dimethylsulfamoyl)-4-[4-(morpholin-4-yl)piperidin-1-yl]-1-[3-(trifluoromethyl)phenyl]-1H-pyrazolo[3,4-b]pyridine-6-carboxamide] | 278.5% | 101 nM | 476.3% | 66.7 nM |
| Cc1cc(-n2nc(C3CCC3)c3c(N4CCC(N5CCOCC5)CC4)cc(C(=O)NS(C)(=O)=O)nc32)ccc1F [Compound 514, 3-cyclobutyl-1-(4-fluoro-3-methylphenyl)-N-(methanesulfonyl)-4-[4-(morpholin-4-yl)piperidin-1-yl]-1H-pyrazolo[3,4-b]pyridine-6-carboxamide] | 301.4% | 150 nM | 540.3% | 97.1 nM |
| CS(=O)(=O)NC(=O)c1cc(N2CCC(N3CCOCC3)CC2)c2c(C3CCC3)nn(-c3cccc(F)c3)c2n1 [Compound 515, 3-cyclobutyl-1-(3-fluorophenyl)-N-(methanesulfonyl)-4-[4-(morpholin-4-yl)piperidin-1-yl]-1H-pyrazolo[3,4-b]pyridine-6-carboxamide] | 287.1% | 179 nM | 479.2% | 52.9 nM |
| CS(=O)(=O)NC(=O)c1cc(N2CCC(N3CCOCC3)CC2)c2c(C3CCC3)nn(-c3cccc(C(F)(F)F)c3)c2n1 [Compound 516, 3-cyclobutyl-N-(methanesulfonyl)-4-[4-(morpholin-4-yl)piperidin-1-yl]-1-[3-(trifluoromethyl)phenyl]-1H-pyrazolo[3,4-b]pyridine-6-carboxamide] | 322.7% | 120 nM | 545.3% | 56.6 nM |
| CNS(=O)(=O)NC(=O)c1cc(N2CCC(N3CCOCC3)CC2)c2c(C3CCC3)nn(-c3ccc(F)cc3)c2n1 [Compound 517, 3-cyclobutyl-1-(4-fluorophenyl)-N-(methylsulfamoyl)-4-[4-(morpholin-4-yl)piperidin-1-yl]-1H-pyrazolo[3,4-b]pyridine-6-carboxamide] | 320.5% | 184 nM | 520.08% | 75.8 nM |
| CN1CCN(Cc2cc(C(=O)NS(C)(=O)=O)nc3c2c(C2CCC2)nn3-c2ccc(F)cc2)CC1 [Compound 518, 3-cyclobutyl-1-(4-fluorophenyl)-N-(methanesulfonyl)-4-[(4-methylpiperazin-1-yl)methyl]-1H-pyrazolo[3,4-b]pyridine-6-carboxamide] | 35.86% |  | 189.55% | 3130 nM |
| CS(=O)(=O)NC(=O)c1cc(CN2CCOCC2)c2c(C3CCC3)nn(-c3ccc(F)cc3)c2n1 [Compound 519, 3-cyclobutyl-1-(4-fluorophenyl)-N-(methanesulfonyl)-4-[(morpholin-4-yl)methyl]-1H-pyrazolo[3,4-b]pyridine-6-carboxamide] | 114.4% | 3330 nM | 252.3% | 1020 nM |

Source: patent US10259810B2, “N-sulfonylated pyrazolo[3,4-b]pyridin-6-carboxamides and method of use” (AbbVie S.à.r.l., priority 2015, dated 2019)
